Measurements taken from publication PMC12110804, “Molecular Characterization and Functional Analysis of Odorant-Binding Proteins in Ectropis grisescens” (International Journal of Molecular Sciences, 2025).
“Also recorded” adds a separate entry of the source. Read-outs that look alike come from different tables or passages of the source.

Experiments:
EgriGOBP2 [1] = molecular target: T1, EgriGOBP2 (Ectropis grisescens, UniProt A0A977IVV0); experiment: Fluorescence competitive binding assay (1-NPN displacement) with recombinant EgriGOBP2; conditions: for binding to EgriGOBP2 (in words, displacement of 1-NPN fluorescence): non-binding ligands
T1 sequence (A0A977IVV0 entry or part of it): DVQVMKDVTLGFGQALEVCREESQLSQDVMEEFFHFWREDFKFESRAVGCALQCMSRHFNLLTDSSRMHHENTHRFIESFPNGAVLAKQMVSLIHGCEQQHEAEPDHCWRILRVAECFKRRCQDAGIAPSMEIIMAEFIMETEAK
Protocol: The excitation wavelength was 337 nm, and the emission spectrum ranged from 370 to 550 nm. […] The binding curves were linearized using Scatchard plots, based on fluorescence intensity values relative to the maximum fluorescence emissions.
The dissociation constants (Ki) of each ligand were calculated with the following equation: Ki = [IC50]/(1 + [1-NPN]/K1-NPN).

EgriGOBP2 [2] = molecular target: T1, EgriGOBP2; experiment: Binding of fluorescent probe 1-NPN to recombinant EgriGOBP2 (binding curve, Scatchard plot); conditions: 2 µM protein in 20 mM Tris-HCl pH 7.4, 1-NPN 0–16 µM, read-out: dissociation constant (Kd) of 1-NPN
Protocol: The binding affinities of target proteins were measured with an F-7000 fluorescence spectrophotometer (Hitachi, Tokyo, Japan) using a 1 cm light path quartz cuvette, and 1-N-phenyl-naphthylamine (1-NPN) was used as a fluorescent probe. The excitation wavelength was 337 nm, and the emission spectrum ranged from 370 to 550 nm. A total of 24 volatile compounds, including host volatiles and plant essential oil-derived volatiles, were selected for fluorescence competitive binding assays (Table 2). First, the binding affinities of 1-NPN to the target proteins were determined. The protein solutions (2 µM in 20 mM Tris-HCl, pH = 7.4) were titrated with 1-NPN to final concentrations ranging from 0 to 16 µM. The binding curves were linearized using Scatchard plots, based on fluorescence intensity values relative to the maximum fluorescence emissions. Next, each ligand (at concentrations of 0–16 µM, prepared at a 1 mM stock concentration) was added to the 2 µM EgriGOBP2/1-NPN mixture, and competitive binding curves were plotted based on the fluorescence intensity values from three replicates.
The dissociation constants (Ki) of each ligand were calculated with the following equation: Ki = [IC50]/(1 + [1-NPN]/K1-NPN). […]

CpalOBP2 = system: CpalOBP2; design: method as in PMID 25810363; conditions: cited from earlier work
C. pallens = system: C. pallens; design: method as in PMID 25810363; conditions: glass Y-tube olfactometer; cited from earlier work
RpedOBP38 = system: RpedOBP38; design: method as in PMID 39835200; conditions: plant essential oil-derived volatiles with repellent activity; cited from earlier work
AgamOBP5 = system: AgamOBP5; design: method as in PMID 36921814; conditions: cited from earlier work
[3] = system: GOBP2 in Ectropis obliqua; design: method as in PMID 29543772; conditions: host odors; cited from earlier work
Sitophilus zeamais = system: Sitophilus zeamais; design: method as in PMID 31813390; conditions: cited from earlier work
[4] = system: Frankliniella occidentalis, Frankliniella intonsa, and Thrips palmi Karny; design: method as in PMID 33346361; conditions: Y-tube olfactometer bioassays; cited from earlier work
[5] = Ki = [IC50]/(1 + [1-NPN]/K1-NPN), 2 µM EgriGOBP2/1-NPN mixture, pH 7.4, read-out: EgriGOBP2 Ki
[6] = displacement of 1-NPN from 2 µM EgriGOBP2/1-NPN mixture, 20 mM Tris-HCl pH 7.4, ligand 0–16 µM, read-out: EgriGOBP2 IC50
[7] = EgriGOBP2 Ki, Ki = [IC50]/(1 + [1-NPN]/K1-NPN), 2 µM EgriGOBP2/1-NPN mixture, pH 7.4
[8] = EgriGOBP2 Ki (dash cells), “-”: no detectable Ki
[9] = cells printed as “-”: IC50 could not be calculated, read-out: EgriGOBP2 IC50 (dash cells)
[10] = “-”: no detectable Ki, read-out: EgriGOBP2 Ki (dash cells)

`CC(=O)OCc1ccccc1` [Benzyl acetate] showed a Ki (EgriGOBP2 [1]; [5]) of 13 µM and an IC50 (EgriGOBP2 [1]; [6]) of 14.3 µM.

For `c1ccc(Nc2cccc3ccccc23)cc1` [1-NPN, 1-N-phenyl-naphthylamine], the Kd (EgriGOBP2 [2]) was 9.28 µM.

With `C=CC(O)CC` (centres unmarked) [1-penten-3-ol] the Ki (EgriGOBP2 [1]; [5]) was 40.6 µM and the IC50 (EgriGOBP2 [1]; [6]) was 44.8 µM.

In the case of `CC(C)=CCC/C(C)=C/CC/C(C)=C/CO` [farnesol], the “binding affinity for CpalOBP2 (in words)” value (CpalOBP2) is listed as “strong and high binding affinities” and the “behavioral response of C. pallens (in words)” value (C. pallens) is listed as “significant and strong repellent behavioral responses”.

For `C=CC(C)=CCC=C(C)C` [Ocimene], the “binding affinity to EgriGOBP2 (class in words)” value (“binding affinity to EgriGOBP2” for short) (EgriGOBP2 [1]) was “moderate (moderate (22 µM < Ki ≤ 40 µM))”, the Ki (EgriGOBP2 [1]; [5]) was 18 µM and the IC50 (EgriGOBP2 [1]; [6]) was 19.9 µM.

`CC(C)=CCCC(C)=CC=O` (mixture of isomers) [Citral] showed an IC50 (EgriGOBP2 [1]) of 9.12 µM and a Ki (EgriGOBP2 [1]; [7]) of 8.23 µM.

For `CCC/C=C/C=O` [E-2-hexenal], the IC50 (EgriGOBP2 [1]) was greater than 16 µM, the Ki (EgriGOBP2 [1]; [8]) was greater than 14.4 µM and the “binding to EgriGOBP2 (in words, displacement of 1-NPN fluorescence)” value (“binding to EgriGOBP2” below) (EgriGOBP2 [1]) was “negligible binding; also recorded: did not exhibit binding affinity”.

In the case of `CC1=CC[C@](O)(C(C)C)CC1` [(+) -4-terpineol], the “binding to RpedOBP38 (in words)” value (RpedOBP38) is given as “found to bind”.

For `Cc1ccc(C(C)C)cc1O` [Carvacrol], the IC50 (EgriGOBP2 [1]) is listed as 23.6 µM, the Ki (EgriGOBP2 [1]; [7]) is listed as 21.3 µM and the “binding to AgamOBP5 (in words)” value (AgamOBP5) is listed as “strong binder”. The “binding to RpedOBP38 (in words)” value (RpedOBP38) was “found to bind”.

Work on `CC/C=C\CCOC(C)=O` [Cis-3-hexenyl acetate] yielded a Ki (EgriGOBP2 [1]; [5]) of 13.1 µM and an IC50 (EgriGOBP2 [1]; [6]) of 14.5 µM.

With `CC/C=C\CCOC(=O)CCC` [Cis-3-hexenyl tyrate] the “binding affinity to EgriGOBP2” value (EgriGOBP2 [1]) was “moderate (moderate (22 µM < Ki ≤ 40 µM))”, the Ki (EgriGOBP2 [1]; [5]) was 18.6 µM and the IC50 (EgriGOBP2 [1]; [6]) was 20.6 µM.

Work on `C=CC(C)(O)CCC=C(C)CCC=C(C)C` (mixture of isomers) [Nerolidol] yielded a Ki (EgriGOBP2 [1]; [5]) of 7.93 µM and an IC50 (EgriGOBP2 [1]; [6]) of 8.79 µM.

`CCCCCCO` [n-hexyl alcohol] gave a Ki (EgriGOBP2 [1]; [5]) of 21.2 µM and an IC50 (EgriGOBP2 [1]; [6]) of 23.5 µM.

In the case of farnesene, the “binding affinity for CpalOBP2 (in words)” value (CpalOBP2) is listed as “strong and high binding affinities” and the “behavioral response of C. pallens (in words)” value (C. pallens) is listed as “significant and strong repellent behavioral responses”.

For `OCc1ccccc1` [Benzyl alcohol], the IC50 (EgriGOBP2 [1]) was 30 µM and the Ki (EgriGOBP2 [1]; [7]) was 27 µM.

For `O=C/C=C/c1ccccc1` [Cinnamaldehyde], the IC50 (EgriGOBP2 [1]) was greater than 16 µM, the Ki (EgriGOBP2 [1]; [8]) was greater than 14.4 µM and the “binding to EgriGOBP2” value (EgriGOBP2 [1]) was “did not bind”.

For `C=CC(C)(O)CCC=C(C)C` (centres unmarked) [Linalool], the IC50 (EgriGOBP2 [1]) was 11.9 µM and the Ki (EgriGOBP2 [1]; [7]) was 10.8 µM.

For `CCCCCCCCC=O` [Nonanal], the IC50 (EgriGOBP2 [1]; [9]) was greater than 16 µM, the “binding to EgriGOBP2” value (EgriGOBP2 [1]) was “negligible binding; also recorded: did not exhibit binding affinity” and the Ki (EgriGOBP2 [1]; [10]) was greater than 14.4 µM.

Molecule `C=CCc1ccc(OC)cc1` [4-allylanisole] has an IC50 (EgriGOBP2 [1]) of 8.1 µM and a Ki (EgriGOBP2 [1]; [7]) of 7.31 µM.

With `O=Cc1ccccc1` [Benzaldehyde] the IC50 (EgriGOBP2 [1]) was greater than 16 µM, the Ki (EgriGOBP2 [1]; [8]) was greater than 14.4 µM and the “binding to EgriGOBP2” value (EgriGOBP2 [1]) was “negligible binding; also recorded: did not exhibit binding affinity”. For the same molecule, the “competitive binding to Ectropis obliqua GOBP2 (in words)” value [3] was “competitively bind”.

For `CCCCCCCCCC=O` [Decanal], the IC50 (EgriGOBP2 [1]; [9]) was greater than 16 µM, the “binding to EgriGOBP2” value (EgriGOBP2 [1]) was “negligible binding” and the Ki (EgriGOBP2 [1]; [10]) was greater than 14.4 µM.

In the case of `CC(=O)OC/C=C(\C)CCC=C(C)C` [Geranyl acetate], the Ki (EgriGOBP2 [1]; [5]) is reported as 22.3 µM and the IC50 (EgriGOBP2 [1]; [6]) is reported as 24.7 µM.

`CC/C=C\CCOC(=O)CCCCC` [Cis-3-hexenyl caproate] gave a Ki (EgriGOBP2 [1]; [5]) of 14 µM and an IC50 (EgriGOBP2 [1]; [6]) of 15.5 µM.

For `C=C(C)[C@@H]1CC=C(C)C(=O)C1` [L(-)-carvone], the Ki (EgriGOBP2 [1]; [5]) is given as 11.6 µM, the IC50 (EgriGOBP2 [1]; [6]) is given as 12.9 µM and the “binding to RpedOBP38 (in words)” value (RpedOBP38) is given as “found to bind”.

Molecule `C=CCc1ccc(O)c(OC)c1` [Eugenol] has an IC50 (EgriGOBP2 [1]) of 9.28 µM and a Ki (EgriGOBP2 [1]; [7]) of 8.38 µM.

In the case of `C=C(C)[C@H]1CC=C(C)C(=O)C1` [(S)-(+)-carvone], the “binding affinity to EgriGOBP2” value (EgriGOBP2 [1]) is reported as “strong (strong (6 µM < Ki ≤ 22 µM))” and the IC50 (EgriGOBP2 [1]; [6]) is reported as 5.36 µM.

In the case of `C=C(C)C1CC=C(C)C(=O)C1` (centres unmarked) [Carvone], the “repellency to Sitophilus zeamais (in words)” value (Sitophilus zeamais) is given as “strongly repellent”.

In the case of `COC(=O)c1ccccc1O` [Methyl salicylate], the IC50 (EgriGOBP2 [1]) is given as 17.3 µM, the Ki (EgriGOBP2 [1]; [7]) is given as 15.6 µM and the “competitive binding to Ectropis obliqua GOBP2 (in words)” value [3] is given as “competitively bind”.

In the case of `CC12CCC(CC1)C(C)(C)O2` [Eucalyptol], the Ki (EgriGOBP2 [1]; [5]) is listed as less than 10 µM, the IC50 (EgriGOBP2 [1]; [6]) is listed as 9.36 µM and the “repellent activity against three thrip species (in words)” value [4] is listed as “significant repellent activity”.
